Data from PubChem BioAssay (NCI).
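Tested at 5 concentrations; 48 h exposure; 96-well plates; endpoints linearly interpolated, else capped at highest concentration. TGI: total growth inhibition.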 Where a SMILES comes first, the peptide text is derived from it. The star is where a group is joined. Boc = CC(C)(C)OC(=O)*

How the values were obtained:
Test in all cases: growth of human tumour cells (NCI), 48 h
BT-549 breast = tested on: BT-549 breast
HL-60(TB) leukemia = tested on: HL-60(TB) leukemia
HOP-62 NSCLC = tested on: HOP-62 NSCLC
HOP-92 NSCLC = tested on: HOP-92 NSCLC
MDA-MB-435 = tested on: MDA-MB-435
MOLT-4 leukemia = tested on: MOLT-4 leukemia
NCI-H226 lung = tested on: NCI-H226 lung
RXF 393 renal = tested on: RXF 393 renal
U251 CNS = tested on: U251 CNS
UO-31 renal = tested on: UO-31 renal

| Compound | TGI (BT-549 breast) [µM] | TGI (HL-60(TB) leukemia) [µM] | TGI (HOP-62 NSCLC) [µM] | TGI (HOP-92 NSCLC) [µM] | TGI (MDA-MB-435) [µM] | TGI (MOLT-4 leukemia) [µM] | TGI (NCI-H226 lung) [µM] | TGI (RXF 393 renal) [µM] | TGI (U251 CNS) [µM] | TGI (UO-31 renal) [µM] |
| --- | --- | --- | --- | --- | --- | --- | --- | --- | --- | --- |
| O=c1ccc2ccc(CBr)cc2o1 | 8.99 | 3.58 | 30.6 | 3.13 | 10.4 | 5.98 | 23 | 3.47 | 3.36 |  |
| CN(C)Cc1c(O)ccc2c1c1c(n2C)C(=O)c2ccccc2C1=O | 42.1 | > 100 | > 100 | > 100 | 21.1 | > 100 | 38.1 | 81.5 | > 100 | 37.5 |
| Cn1c(-c2ccc[se]2)ccc1-c1ccc(C=O)[se]1 | 65.4 | > 100 | 35.3 | > 82.1 | > 100 | > 100 | 2.3 | 7.14 | 25.4 | > 100 |
| CCOP(=O)(CCCC(O)CNc1nc(N)nc(Cl)c1N=Nc1ccc(Cl)cc1)OCC (configuration not stated) | 20.8 | 4.19 | 24.8 | 25.8 | 19 | 11.8 | 22.1 | 18.5 | 22.7 | 16.1 |
| C[C@@]1(CCCCCCCCCCc2ccccc2)C[C@@]2(C)OC(=O)C[C@H]2OO1 | 0.979 | 35.8 | 35.3 | 2.16 | 3.4 | 2.88 | 10.9 | 54.3 | 33.1 | 49.9 |
| Cc1cc2cc3cc(C)c(N)cc3nc2cc1N | > 44.5 | 11 | 1.32 | 4.89 | 11 | 0.894 | 11.7 | 2.47 |  | 10.4 |
| COC(=O)Nc1nc2ccc(S(=O)(=O)Nc3ccccn3)cc2[nH]1 | > 100 | 34.8 | > 100 | > 100 | 44.5 | 64 | > 100 | > 100 | > 100 | > 100 |
| Cc1nnc(N)nc1/C=C\c1ccc(Cl)cc1Cl | > 100 | 53 | 36.3 | > 100 | > 100 | > 100 | 46.2 | > 100 | > 100 | > 100 |
| O=C1c2cc(I)ccc2N2CCN=C2N1Cc1ccccc1 | > 100 | > 100 | > 100 | 80.1 | > 100 | > 100 | > 100 | 49.4 | > 100 | > 100 |
| CCC(=O)Nc1cccc(N=Cc2ccc(OC(=O)/C=C\c3ccccc3)cc2)c1 | > 75 | > 75 | > 75 | > 75 | > 75 | > 75 | > 75 | 48.1 |  | > 75 |
| C=C(C)[C@@H](O)[C@H](O)C[C@H](C)C1CC[C@]2(C)C1=CC[C@@H]1[C@@]3(C)CC[C@@H](OC(C)=O)C(C)(C)[C@@H]3C[C@@H](OC3OC(COC(C)=O)C(O)C(O)C3O)[C@]12C (some centres not stated) | 10.3 | 4.2 | 10.1 | 6.17 | 4.42 | 4.5 | 10.3 | 4.49 | 5.86 | 12.4 |
| O=C1/C(=C/c2ccc(O)cc2)CCCC1CN1CCCCC1 (configuration not stated) | 6.89 | 0.924 | 29.8 | 3.47 | 21.3 | 4.82 | 18.2 | 27.1 | 22.3 | 5.88 |
| COC(=O)C(Cc1ccccc1)NC(=O)C(CS)NC(=O)OC(C)(C)C (stereo not drawn) (Boc-Cys-Phe-OMe; configuration not given here) | > 100 | > 100 | > 100 | > 100 | > 100 | 41.3 | > 100 | > 100 | > 100 | > 100 |
| CC(=O)OCC1OC(n2cnc3nc(Br)[nH]c(=O)c32)C(OC(C)=O)C1OC(C)=O (configuration not stated) | > 100 | > 100 | > 100 | > 100 | > 100 | > 100 | > 100 | > 100 | > 100 | > 100 |
| O=c1[nH]c(=O)c2ncn(-c3ccc([N+](=O)[O-])cn3)c2[nH]1 | > 100 | > 100 | > 100 | > 100 | > 100 | > 100 | > 100 | > 100 | > 100 | > 100 |
| CC(=O)C1=C(C)O[C@@H]2O[C@H](COCc3ccccc3)[C@@H](OCc3ccccc3)[C@H](O)[C@@H]2S1 | 46.4 | 39.7 | 46.2 | 44.2 | 38 | 33.3 | 48.6 | 47.7 | 38.5 | 37.7 |
